Reference: PubChem BioAssay (NCI)
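How tested: cells in 96-well plates exposed to compound for 48 hours at five concentrations. The concentration for 50% growth inhibition is given as GI50. At the TGI there is no net growth.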

Key:
Assay in all cases: inhibition of tumour cell growth, NCI panel, 48 h
LOX IMVI melanoma = tested on: LOX IMVI melanoma
SF-268 CNS = tested on: SF-268 CNS
NCI-H23 lung = tested on: NCI-H23 lung
NCI/ADR-RES ovarian = tested on: NCI/ADR-RES ovarian
A549 NSCLC = tested on: A549 NSCLC
A498 renal = tested on: A498 renal
HT29 colon = tested on: HT29 colon
OVCAR-5 ovarian = tested on: OVCAR-5 ovarian
SK-OV-3 ovarian = tested on: SK-OV-3 ovarian
HOP-62 NSCLC = tested on: HOP-62 NSCLC

## C=C1C(=O)O[C@H]2[C@H]1CC/C(Cn1cc(-c3cccc(Cl)c3)nn1)=C\CC[C@@]1(C)O[C@@H]21
LOX IMVI melanoma
  GI50: 0.285 µM
  TGI: 0.898 µM
SF-268 CNS
  GI50: 1.59 µM
  TGI: 3.46 µM
NCI-H23 lung
  GI50: 1.58 µM
  TGI: 3.27 µM
NCI/ADR-RES ovarian
  GI50: 2.39 µM
  TGI: 8.39 µM
A549 NSCLC
  GI50: 1.79 µM
  TGI: 3.57 µM
A498 renal
  GI50: 1.52 µM
  TGI: 2.97 µM
HT29 colon
  GI50: 0.51 µM
  TGI: 1.73 µM
OVCAR-5 ovarian
  GI50: 1.21 µM
  TGI: 2.78 µM
SK-OV-3 ovarian
  GI50: 3.67 µM
  TGI: 11.2 µM
HOP-62 NSCLC
  GI50: 1.94 µM
  TGI: 3.68 µM

## O=C1C2c3[nH]c4ccccc4c3C3CCCCCC3C2C(=O)N1c1ccccc1 (stereo unspecified)
LOX IMVI melanoma
  TGI: > 49.9 µM
SF-268 CNS
  TGI: 99.8 µM
NCI-H23 lung
  TGI: > 82.9 µM
A549 NSCLC
  TGI: > 67.5 µM
A498 renal
  TGI: > 57.1 µM
HT29 colon
  TGI: > 100 µM
OVCAR-5 ovarian
  TGI: > 100 µM
SK-OV-3 ovarian
  TGI: 34.1 µM
HOP-62 NSCLC
  TGI: 41.7 µM

## COc1cc(C2C(C(=O)Nc3ccc([N+](=O)[O-])cc3)=C(C)NC(C)=C2C(=O)Nc2ccc([N+](=O)[O-])cc2)ccc1O
LOX IMVI melanoma
  TGI: 31.5 µM
SF-268 CNS
  TGI: > 72.6 µM
NCI-H23 lung
  TGI: > 77.1 µM
A549 NSCLC
  TGI: > 100 µM
A498 renal
  TGI: 99.8 µM
HT29 colon
  TGI: 38.1 µM
OVCAR-5 ovarian
  TGI: > 95.8 µM
SK-OV-3 ovarian
  TGI: 77.8 µM
HOP-62 NSCLC
  TGI: 35 µM

## CC(=O)[CH-]C(=O)c1ccccc1.CC(=O)[CH-]C(=O)c1ccccc1.CC(C)CCC[C@H](C)C1CCC2[C@@H]3CC=C4C[C@@H]([O-])CC[C@]4(C)C3CC[C@@]21C.CC(C)CCC[C@H](C)C1CCC2[C@@H]3CC=C4C[C@@H]([O-])CC[C@]4(C)C3CC[C@@]21C.Cl.[Ti+4] (stereo partly specified)
LOX IMVI melanoma
  GI50: > 25 µM
  TGI: > 25 µM
SF-268 CNS
  GI50: > 25 µM
  TGI: > 25 µM
NCI-H23 lung
  GI50: > 25 µM
  TGI: > 25 µM
A549 NSCLC
  GI50: > 25 µM
  TGI: > 25 µM
A498 renal
  GI50: > 25 µM
  TGI: > 25 µM
HT29 colon
  GI50: > 25 µM
  TGI: > 25 µM
OVCAR-5 ovarian
  GI50: > 25 µM
  TGI: > 25 µM
SK-OV-3 ovarian
  GI50: > 25 µM
  TGI: > 25 µM
HOP-62 NSCLC
  GI50: > 25 µM
  TGI: > 25 µM

## COc1cc(-c2ccc(NC(=O)SCCC(=O)O)cc2OC)ccc1NC(=O)SCCC(=O)O
LOX IMVI melanoma
  TGI: > 100 µM
SF-268 CNS
  TGI: > 100 µM
NCI-H23 lung
  TGI: > 100 µM
A549 NSCLC
  TGI: > 100 µM
A498 renal
  TGI: > 100 µM
HT29 colon
  TGI: > 100 µM
OVCAR-5 ovarian
  TGI: > 100 µM
HOP-62 NSCLC
  TGI: > 100 µM

## N#Cc1ccccc1C#C/C=C\C#CC#C/C=C\C#Cc1ccccc1C#N
LOX IMVI melanoma
  GI50: 17.3 µM
  TGI: 45 µM
SF-268 CNS
  GI50: 12 µM
  TGI: > 100 µM
NCI-H23 lung
  GI50: 3.14 µM
  TGI: 19.7 µM
NCI/ADR-RES ovarian
  GI50: 18.5 µM
  TGI: 68.2 µM
A549 NSCLC
  GI50: 11 µM
  TGI: > 100 µM
HT29 colon
  GI50: 3.39 µM
  TGI: 94.4 µM
OVCAR-5 ovarian
  GI50: 11.4 µM
  TGI: 26.5 µM
SK-OV-3 ovarian
  GI50: 28.6 µM
  TGI: > 100 µM
HOP-62 NSCLC
  GI50: 16.5 µM
  TGI: 43.5 µM

## COc1cc(/C=C/c2ccc(Br)cc2)cc(OC)c1OC
LOX IMVI melanoma
  TGI: > 100 µM
SF-268 CNS
  TGI: 31.2 µM
NCI-H23 lung
  TGI: > 81.2 µM
A549 NSCLC
  TGI: > 100 µM
A498 renal
  TGI: > 56.6 µM
HT29 colon
  TGI: > 39.3 µM
OVCAR-5 ovarian
  TGI: > 75.1 µM
SK-OV-3 ovarian
  TGI: > 89.9 µM
HOP-62 NSCLC
  TGI: 49.8 µM

## COC1[C@H](NC(=O)OC(C)(C)C)C(=O)N1Cc1ccccc1 (stereo partly specified)
LOX IMVI melanoma
  TGI: > 100 µM
SF-268 CNS
  TGI: > 100 µM
NCI-H23 lung
  TGI: > 100 µM
A549 NSCLC
  TGI: > 100 µM
A498 renal
  TGI: > 100 µM
HT29 colon
  TGI: > 100 µM
OVCAR-5 ovarian
  TGI: > 100 µM
SK-OV-3 ovarian
  TGI: > 100 µM
HOP-62 NSCLC
  TGI: > 100 µM

## COc1ccc(S(=O)(=O)N[C@H](C(=O)O)c2ccccc2)cc1
LOX IMVI melanoma
  TGI: > 100 µM
SF-268 CNS
  TGI: > 100 µM
NCI-H23 lung
  TGI: > 100 µM
A549 NSCLC
  TGI: > 100 µM
HT29 colon
  TGI: > 100 µM
OVCAR-5 ovarian
  TGI: > 100 µM
SK-OV-3 ovarian
  TGI: > 100 µM
HOP-62 NSCLC
  TGI: > 100 µM

## CCCCCCCCCCCCCCCCc1c(C(=O)OC)nc(NN)[nH]c1=O
LOX IMVI melanoma
  TGI: > 50 µM
SF-268 CNS
  TGI: > 50 µM
NCI-H23 lung
  TGI: > 50 µM
A549 NSCLC
  TGI: > 50 µM
A498 renal
  TGI: > 50 µM
HT29 colon
  TGI: > 50 µM
OVCAR-5 ovarian
  TGI: > 50 µM
SK-OV-3 ovarian
  TGI: > 50 µM
HOP-62 NSCLC
  TGI: > 50 µM

## Cc1nc(N)c(-c2ccccc2)s1
LOX IMVI melanoma
  TGI: > 94.4 µM
SF-268 CNS
  TGI: > 100 µM
NCI-H23 lung
  TGI: > 100 µM
A549 NSCLC
  TGI: > 100 µM
A498 renal
  TGI: > 100 µM
HT29 colon
  TGI: > 100 µM
OVCAR-5 ovarian
  TGI: > 100 µM
SK-OV-3 ovarian
  TGI: > 100 µM
HOP-62 NSCLC
  TGI: > 100 µM

## COc1ccc2nc(-c3ccccc3)cc(Nc3cccc(C(C)=O)c3)c2c1
SF-268 CNS
  GI50: 2.22 µM
  TGI: 8.61 µM
NCI-H23 lung
  GI50: 14 µM
  TGI: 33.1 µM
NCI/ADR-RES ovarian
  GI50: 4.89 µM
  TGI: 34.1 µM
A549 NSCLC
  GI50: 15.3 µM
  TGI: 55.6 µM
A498 renal
  GI50: 2.42 µM
  TGI: 15 µM
HT29 colon
  GI50: 3.67 µM
  TGI: > 100 µM
OVCAR-5 ovarian
  GI50: 13.1 µM
  TGI: 29.9 µM
SK-OV-3 ovarian
  GI50: 19.7 µM
  TGI: 56.5 µM
HOP-62 NSCLC
  GI50: 2.08 µM
  TGI: 4.88 µM

## COc1ccc(Cl)cc1Nc1nc(C(F)(F)F)ccc1C(=O)N/N=C/c1cccnc1
LOX IMVI melanoma
  GI50: 3.17 µM
  TGI: > 100 µM
SF-268 CNS
  GI50: 2.52 µM
  TGI: 61.5 µM
NCI-H23 lung
  GI50: 5.34 µM
  TGI: > 100 µM
NCI/ADR-RES ovarian
  GI50: 3.8 µM
  TGI: > 100 µM
A549 NSCLC
  GI50: 5.49 µM
  TGI: > 100 µM
A498 renal
  GI50: 1.23 µM
  TGI: > 100 µM
HT29 colon
  GI50: 6.01 µM
  TGI: > 100 µM
SK-OV-3 ovarian
  GI50: 2.47 µM
  TGI: > 100 µM
HOP-62 NSCLC
  GI50: 5.22 µM
  TGI: 75 µM

## CCN(CC)CC(=O)NC1c2ccccc2Oc2c(C)cccc21 (stereo unspecified)
LOX IMVI melanoma
  TGI: > 100 µM
SF-268 CNS
  TGI: > 100 µM
NCI-H23 lung
  TGI: > 100 µM
A549 NSCLC
  TGI: > 100 µM
HT29 colon
  TGI: > 100 µM
OVCAR-5 ovarian
  TGI: > 100 µM
SK-OV-3 ovarian
  TGI: > 100 µM
HOP-62 NSCLC
  TGI: > 100 µM

## COc1ccc(-c2ccccc2)c2[nH]c3c(c12)CCNC3=O
LOX IMVI melanoma
  TGI: > 100 µM
SF-268 CNS
  TGI: > 100 µM
NCI-H23 lung
  TGI: > 100 µM
A549 NSCLC
  TGI: > 100 µM
A498 renal
  TGI: > 100 µM
HT29 colon
  TGI: > 100 µM
OVCAR-5 ovarian
  TGI: > 100 µM
HOP-62 NSCLC
  TGI: > 100 µM

## O=C(N/C(=C\c1ccccc1Cl)c1nc2ccccc2[nH]1)c1ccccc1
SF-268 CNS
  TGI: > 100 µM
NCI-H23 lung
  TGI: > 100 µM
A549 NSCLC
  TGI: > 100 µM
HT29 colon
  TGI: 87.2 µM
OVCAR-5 ovarian
  TGI: > 100 µM
SK-OV-3 ovarian
  TGI: > 100 µM

## COC(=O)C1C(=O)O[C@@H](c2ccc(OC)c(OC)c2OC)C1C(=O)OC (mixture of isomers)
LOX IMVI melanoma
  TGI: > 100 µM
SF-268 CNS
  TGI: > 100 µM
NCI-H23 lung
  TGI: > 100 µM
A549 NSCLC
  TGI: > 100 µM
A498 renal
  TGI: > 100 µM
HT29 colon
  TGI: > 100 µM
OVCAR-5 ovarian
  TGI: > 100 µM
SK-OV-3 ovarian
  TGI: > 100 µM
HOP-62 NSCLC
  TGI: > 100 µM

## COc1ccc2c(c1)[n+](=O)c(C(=O)C/C(=N/NC(=O)C[N+](C)(C)C)C(=O)Nc1cccc(C)c1C)c(C)n2O
SF-268 CNS
  TGI: > 100 µM
NCI-H23 lung
  TGI: > 100 µM
A549 NSCLC
  TGI: > 100 µM
A498 renal
  TGI: > 100 µM
HT29 colon
  TGI: > 100 µM
OVCAR-5 ovarian
  TGI: > 100 µM
SK-OV-3 ovarian
  TGI: > 100 µM
HOP-62 NSCLC
  TGI: > 100 µM
